Experiments:
G2019S LRRK2 = molecular target: T1, G2019S LRRK2 (Mus musculus, UniProt Q5S006, G2019S); test: LRRK2 degradation in G2019S LRRK2 MEFs by Western blotting; assay type: cell-based
T1 construct: endogenous in cells; host or cells: G2019S LRRK2 MEFs
Method: (§1) These PROTACs were then biologically evaluated in mouse embryonic fibroblasts (MEFs) by Western blotting. Briefly, MEFs were treated with compounds at 33 nM and 1 μM for 4 h (Figure 2) and 24 h (Figure S2) separately, and the intracellular level of LRRK2, phosphorylated LRRK2 at Ser935, and phosphorylated Rab10 (pRab10) at Thr73 was determined. Rab10[5],[49] is one of the bona fide substrates of LRRK2, whose phosphorylation status is directly affected by the LRRK2 kinase activity and protein level. Phosphorylation of LRRK2 at Ser935 is a well-studied biomarker site used to assess the efficacy of type 1 LRRK2 inhibitors.[30]
(§2) Primary MEFs were generated as described in a previous study.[80] Briefly, the uterine horn was collected from adult female mice at day E12.5 and transferred to a 10 cm tissue culture dish containing cold PBS. Two forceps were used to tear the yolk sacs to isolate each embryo. Forceps were cleaned thoroughly with 70% ethanol between each embryo isolation. The embryos were culled, and a tissue piece was collected in a polymerase chain reaction (PCR) tube for genotyping. The red tissue of the embryo was removed, and the remainder was minced with a scalpel blade and incubated with a 7.5 mL trypsin–ethylenediaminetetraacetic acid (EDTA) solution for 10 min in a 37 °C, 5% CO2 tissue culture incubator. The dish was removed from the incubator and checked under a light microscope for single cells. Complete media (7.5 mL) was added to the trypsinized cells, and the cell suspension was transferred to a 15 mL Falcon tube and centrifuged at 1200 rpm for 5 min at room temperature. The trypsin was aspirated, the cell pellet was resuspended in a 5 mL fresh complete media, and the cell suspension was plated in a 60 mm tissue culture dish and incubated in a 37 °C, 5% CO2 tissue culture incubator. The MEFs at this stage were considered as passage 0 and were passaged and expanded for experimental use once the genotype was confirmed by allelic sequencing and immunoblotting. MEFs were cultured in Dulbecco’s modified Eagle’s medium (DMEM) containing 10% (v/v) fetal bovine serum (FBS), 2 mM L-glutamine, 100 U/mL penicillin, and 100 μg/mL streptomycin supplemented with 1× nonessential amino acids and 1 mM sodium pyruvate.
(§3) Culturing and passaging of adherent cell lines were carried out using an aseptic technique in CL1 or CL2 (for PBMC isolation) biological safety cabinets. All cells were incubated in a 37 °C incubator with 5% CO2. Cell lines were regularly tested for mycoplasma contamination. For Western blot assay, the cells were seeded in six-well plates. For immunoprecipitation of LRRK2, SH-SY5Y cells (cultured in DMEM-F12, supplemented with 15% (v/v) FBS, 100 U/mL penicillin and 100 μg/mL streptomycin, 1× nonessential amino acids, and 1 mM sodium pyruvate) were seeded in a 10 cm dish. All cells were treated with the indicated compounds such that the final concentration of DMSO was 0.1%. Following the treatment of cells with compounds at indicated concentrations and time periods, the media was removed and the cells were washed with PBS and lysed in a 100 μL ice-cold complete lysis buffer containing 50 mM tris–HCl pH 7.4, 1 mM EGTA, 10 mM 2-glycerophosphate, 50 mM sodium fluoride, 5 mM sodium pyrophosphate, 270 mM sucrose, supplemented with 1 μg/mL microcystin-LR, 1 mM sodium orthovanadate, complete EDTA-free protease inhibitor cocktail (Roche), and 1% (v/v) Triton X-100. The cells were immediately placed on ice and were scraped and collected into 1.5 mL Eppendorf tubes. Cell lysates were incubated on ice for 10 min prior to centrifugation at 15 000g at 4 °C for 15 min.

Rab10-pThr73 [1] = test: Rab10 dephosphorylation in G2019S LRRK2 MEFs by Western blotting; assay type: cell-based, mouse
Method: as §1, §2, §3

Rab10-pThr73 [2] = test: Rab10 dephosphorylation in WT MEFs by Western blotting; assay type: cell-based, mouse; settings: Mus musculus; 4 h, WT MEFs; read-out: EC50 WT-pRab10
Method: as §1, §2, §3

WT LRRK2 = molecular target: T2, WT LRRK2 (Mus musculus, UniProt Q5S006); test: LRRK2 degradation in WT MEFs by Western blotting; assay type: cell-based; settings: 4 h
T2 construct: endogenous in cells; host or cells: wild-type primary MEFs
Method: as §1, §2, §3

LRRK2 = test: Western blot screening of PROTACs in WT and G2019S LRRK2 MEFs; assay type: cell-based, mouse
Method: as §1, §2
Culturing and passaging of adherent cell lines were carried out using an aseptic technique in CL1 or CL2 (for PBMC isolation) biological safety cabinets. All cells were incubated in a 37 °C incubator with 5% CO2. Cell lines were regularly tested for mycoplasma contamination. For Western blot assay, the cells were seeded in six-well plates.

T1 sequence (Q5S006 whole entry G2019S): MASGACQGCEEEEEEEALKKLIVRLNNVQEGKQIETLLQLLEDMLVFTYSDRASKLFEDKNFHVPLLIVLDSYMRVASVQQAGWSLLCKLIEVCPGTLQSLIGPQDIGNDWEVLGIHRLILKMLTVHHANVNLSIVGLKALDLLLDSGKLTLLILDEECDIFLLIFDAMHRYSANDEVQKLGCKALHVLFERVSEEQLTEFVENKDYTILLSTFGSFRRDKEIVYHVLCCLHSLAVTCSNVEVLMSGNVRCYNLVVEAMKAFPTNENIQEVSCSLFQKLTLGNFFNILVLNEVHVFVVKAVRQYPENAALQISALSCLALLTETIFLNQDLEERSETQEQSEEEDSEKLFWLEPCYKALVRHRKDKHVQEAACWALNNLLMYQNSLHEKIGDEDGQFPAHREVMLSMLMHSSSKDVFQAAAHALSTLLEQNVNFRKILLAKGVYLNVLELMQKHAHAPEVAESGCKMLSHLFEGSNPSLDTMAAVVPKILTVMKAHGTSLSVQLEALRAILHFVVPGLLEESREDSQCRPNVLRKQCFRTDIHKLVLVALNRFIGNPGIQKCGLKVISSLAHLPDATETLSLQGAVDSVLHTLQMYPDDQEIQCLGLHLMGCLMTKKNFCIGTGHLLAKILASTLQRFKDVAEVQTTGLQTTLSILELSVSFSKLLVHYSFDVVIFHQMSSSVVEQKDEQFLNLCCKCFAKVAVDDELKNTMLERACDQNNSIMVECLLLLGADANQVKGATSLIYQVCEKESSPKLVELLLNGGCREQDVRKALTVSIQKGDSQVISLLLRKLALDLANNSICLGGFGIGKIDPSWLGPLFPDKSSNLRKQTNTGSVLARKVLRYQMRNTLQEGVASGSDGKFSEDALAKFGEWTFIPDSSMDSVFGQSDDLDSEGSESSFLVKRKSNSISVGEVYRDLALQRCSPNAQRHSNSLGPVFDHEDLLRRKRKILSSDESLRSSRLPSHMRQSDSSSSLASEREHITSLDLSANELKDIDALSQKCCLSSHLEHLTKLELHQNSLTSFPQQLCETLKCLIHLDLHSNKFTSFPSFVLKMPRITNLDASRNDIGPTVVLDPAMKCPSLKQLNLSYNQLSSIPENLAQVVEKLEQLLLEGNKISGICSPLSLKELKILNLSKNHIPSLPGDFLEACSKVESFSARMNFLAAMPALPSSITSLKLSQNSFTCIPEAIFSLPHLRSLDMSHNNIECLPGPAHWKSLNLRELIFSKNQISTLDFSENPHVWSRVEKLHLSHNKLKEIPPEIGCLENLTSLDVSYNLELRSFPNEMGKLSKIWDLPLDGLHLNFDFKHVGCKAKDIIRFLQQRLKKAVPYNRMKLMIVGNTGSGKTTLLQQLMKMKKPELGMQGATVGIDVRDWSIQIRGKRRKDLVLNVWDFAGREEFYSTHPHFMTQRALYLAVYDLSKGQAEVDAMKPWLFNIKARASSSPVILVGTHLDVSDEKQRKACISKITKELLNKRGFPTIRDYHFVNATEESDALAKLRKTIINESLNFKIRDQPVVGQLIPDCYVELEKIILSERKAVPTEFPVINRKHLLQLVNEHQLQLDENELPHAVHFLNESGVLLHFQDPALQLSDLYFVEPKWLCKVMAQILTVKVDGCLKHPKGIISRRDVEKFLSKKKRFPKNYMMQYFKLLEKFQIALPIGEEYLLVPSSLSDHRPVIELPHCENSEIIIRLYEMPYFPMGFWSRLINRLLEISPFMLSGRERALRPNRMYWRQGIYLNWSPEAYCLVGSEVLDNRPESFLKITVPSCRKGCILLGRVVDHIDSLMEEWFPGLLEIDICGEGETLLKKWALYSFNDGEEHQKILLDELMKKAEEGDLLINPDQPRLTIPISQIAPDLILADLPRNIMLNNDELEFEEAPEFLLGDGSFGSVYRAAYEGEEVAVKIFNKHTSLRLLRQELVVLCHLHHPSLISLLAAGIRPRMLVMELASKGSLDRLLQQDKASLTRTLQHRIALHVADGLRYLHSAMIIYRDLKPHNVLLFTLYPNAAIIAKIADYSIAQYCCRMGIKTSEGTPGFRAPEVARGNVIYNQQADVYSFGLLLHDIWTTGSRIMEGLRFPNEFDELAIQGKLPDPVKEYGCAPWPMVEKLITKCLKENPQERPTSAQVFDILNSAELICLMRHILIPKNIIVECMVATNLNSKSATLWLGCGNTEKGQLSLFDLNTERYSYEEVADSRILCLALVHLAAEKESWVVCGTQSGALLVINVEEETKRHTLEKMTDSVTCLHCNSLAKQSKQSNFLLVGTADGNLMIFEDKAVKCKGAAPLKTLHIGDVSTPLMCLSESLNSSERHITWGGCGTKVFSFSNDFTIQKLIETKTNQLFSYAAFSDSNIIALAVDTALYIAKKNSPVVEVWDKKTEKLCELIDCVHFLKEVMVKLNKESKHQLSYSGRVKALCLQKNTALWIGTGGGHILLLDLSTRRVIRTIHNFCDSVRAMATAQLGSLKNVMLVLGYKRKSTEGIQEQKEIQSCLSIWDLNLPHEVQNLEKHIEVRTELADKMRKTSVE
T2 sequence (Q5S006 whole entry): as the sequence (Q5S006 whole entry G2019S) above, with S2019G counted along it

CNc1nc(Nc2ccc(C(=O)N3CCOCC3)cc2OC)ncc1Cl [HG-10-102-01, reference compound]
degradation of G2019S LRRK2 (in words) (G2019S LRRK2; 4 h): did not degrade LRRK2
EC50 (Rab10-pThr73 [1]; Mus musculus, 4 h, G2019S LRRK2 MEFs, read-out: EC50 G2019S pRab10): 0.11 µM
EC50 (Rab10-pThr73 [2]): 0.214 µM
degradation of WT LRRK2 (in words) (WT LRRK2): did not degrade LRRK2

CNc1nc(Nc2ccc(C(=O)N3CCN(CCCOc4cc(-c5scnc5C)ccc4CNC(=O)[C@@H]4C[C@@H](O)CN4C(=O)[C@@H](NC(=O)C4(F)CC4)C(C)(C)C)CC3)cc2OC)ncc1Cl [SD13]
G2019S LRRK2 degraded (G2019S LRRK2; 33 nM/4 h): 60%
G2019S LRRK2 degraded (G2019S LRRK2; 33 nM/24 h): 68%

CNc1nc(Nc2ccc(C(=O)N3CCN(Cc4ccc(CSC(C)(C)C(NC(=O)C5(F)CC5)C(=O)N5CC(O)CC5C(=O)NCc5ccc(-c6scnc6C)cc5)cc4)CC3)cc2OC)ncc1Cl (stereo not drawn) [SD100]
pRab10 dephosphorylated (Rab10-pThr73 [1]; 1 µM): 75–90%
degradation of LRRK2 (LRRK2; 0.033 µM): < 40%
degradation of LRRK2 (in words) (LRRK2; 33 nM/4 h, WT and G2019S LRRK2 MEFs): little to no degradation
